According to the CheMixHub viscosity set:
Values joined by “and” are separate entries in the source; they are usually repeats but may differ in a detail not shown here. Identical values can stand only once. ± gives the uncertainty stated by the source.

Test: xn = mol fraction of the nth substance listed

O=[N+]([O-])c1ccccc1O + CCCCCOC(C)=O
Conditions | viscosity [mPa·s]
298.15 K, 101 kPa, x1 = 0.5 | 1.051 ± 0.01

CCCCCCCCCO + CCCCCCCCO
viscosity [mPa·s], 101.8 kPa
Conditions | x2 = 0.1095 | x2 = 0.3227 | x2 = 0.5251 | x2 = 0.7208 | x2 = 0.9082
298.15 K | 9.3 ± 0.35 | 8.885 ± 0.34 | 8.493 ± 0.34 | 8.137 ± 0.34 | 7.796 ± 0.33
308.15 K | 6.575 ± 0.34 | 6.317 ± 0.33 | 6.057 ± 0.33 | 5.821 ± 0.33 | 5.595 ± 0.32
318.15 K | 4.761 ± 0.33 | 4.579 ± 0.33 | 4.408 ± 0.33 | 4.248 ± 0.32 | 4.093 ± 0.32

CCCCCCCCCO + CCCCCCO
viscosity [mPa·s], 101.8 kPa
Conditions | x2 = 0.1351 | x2 = 0.4186 | x2 = 0.5817 | x2 = 0.7358 | x2 = 0.9282
298.15 K | 8.731 ± 0.39 | 7.177 ± 0.38 | 6.384 ± 0.37 | 5.606 ± 0.36 | 4.847 ± 0.35
308.15 K | 6.206 ± 0.36 | 5.187 ± 0.35 | 4.651 ± 0.34 | 4.127 ± 0.34 | 3.596 ± 0.33
318.15 K | 4.51 ± 0.34 | 3.821 ± 0.33 | 3.453 ± 0.33 | 3.093 ± 0.33 | 2.717 ± 0.33

CCC1CCCCC1 + CC(=O)CC(C)C
298.15 K, 101 kPa
Conditions | viscosity [mPa·s]
x2 = 0.1314 | 0.695 ± 0.007
x2 = 0.2549 | 0.645 ± 0.007
x2 = 0.3669 | 0.621 ± 0.006
x2 = 0.473 | 0.6 ± 0.006
x2 = 0.5856 | 0.583 ± 0.006
x2 = 0.7041 | 0.567 ± 0.006
x2 = 0.8091 | 0.556 ± 0.006
x2 = 0.9079 | 0.547 ± 0.006

O=S(=O)(O)CC(O)CN1CCOCC1 (stereo not drawn) + O
viscosity [mPa·s], 101.3 kPa
Conditions | x1 = 0.00371 | x1 = 0.007201 | x1 = 0.009661 | x1 = 0.01079 | x1 = 0.01403 | x1 = 0.01784
298.15 K | 0.942 ± 0.038 | 1.033 ± 0.042 | 1.078 ± 0.044 | 1.117 ± 0.045 | 1.197 ± 0.049 | 1.303 ± 0.053
308.15 K | 0.761 ± 0.031 | 0.833 ± 0.034 | 0.871 ± 0.035 | 0.901 ± 0.037 | 0.966 ± 0.039 | 1.051 ± 0.043
318.15 K | 0.631 ± 0.026 | 0.691 ± 0.028 | 0.721 ± 0.029 | 0.746 ± 0.03 | 0.798 ± 0.032 | 0.866 ± 0.035

CC(=O)N1CCOCC1 + CCC(C)O
viscosity [mPa·s], 101 kPa
Conditions | 293.15 K | 303.15 K | 313.15 K | 323.15 K
x1 = 0.0516 | 5.054 ± 0.17 | 4.116 ± 0.14 | 3.093 ± 0.1 | 2.101 ± 0.072
x1 = 0.1322 | 6.732 ± 0.2 | 5.737 ± 0.18 | 4.626 ± 0.15 | 3.598 ± 0.12
x1 = 0.2217 | 8.167 ± 0.24 | 7.11 ± 0.21 | 5.901 ± 0.18 | 4.833 ± 0.16
x1 = 0.2879 | 8.981 ± 0.26 | 7.878 ± 0.23 | 6.596 ± 0.2 | 5.499 ± 0.18
x1 = 0.3188 | 9.257 ± 0.27 | 8.132 ± 0.24 | 6.816 ± 0.21 | 5.706 ± 0.18
x1 = 0.3996 | 9.785 ± 0.28 | 8.603 ± 0.25 | 7.199 ± 0.22 | 6.052 ± 0.19
x1 = 0.4597 | 10.02 ± 0.29 | 8.8 ± 0.26 | 7.33 ± 0.22 | 6.157 ± 0.19
x1 = 0.5084 | – | – | 7.42 ± 0.22 | –
x1 = 0.5094 | 10.2 ± 0.29 | 8.944 ± 0.26 | – | 6.225 ± 0.2
x1 = 0.5496 | 10.27 ± 0.29 | 8.985 ± 0.26 | 7.418 ± 0.22 | 6.204 ± 0.2
x1 = 0.6127 | 10.29 ± 0.3 | 8.96 ± 0.26 | 7.323 ± 0.22 | 6.082 ± 0.19
x1 = 0.6444 | 10.11 ± 0.29 | 8.757 ± 0.26 | 7.086 ± 0.22 | 5.83 ± 0.19
x1 = 0.6915 | 10.11 ± 0.29 | 8.728 ± 0.26 | 7.005 ± 0.22 | 5.728 ± 0.18
x1 = 0.7516 | 9.956 ± 0.29 | 8.527 ± 0.25 | 6.739 ± 0.21 | 5.436 ± 0.18
x1 = 0.7984 | 9.588 ± 0.28 | 8.127 ± 0.24 | 6.288 ± 0.2 | 4.964 ± 0.17
x1 = 0.8599 | 9.409 ± 0.28 | 7.905 ± 0.24 | 5.998 ± 0.19 | 4.647 ± 0.16
x1 = 0.9127 | 8.959 ± 0.27 | 7.419 ± 0.23 | 5.454 ± 0.18 | 4.079 ± 0.14
x2 = 0.0157 | 8.843 ± 0.27 | 7.252 ± 0.23 | 5.209 ± 0.17 | 3.918 ± 0.14

O=[N+]([O-])c1ccccc1O + Cc1ccccc1
viscosity [mPa·s], 101 kPa
Conditions | 303.15 K | 308.15 K | 313.15 K | 318.15 K | 323.15 K
x1 = 0.5473 | 1.278 ± 0.032 | 1.182 ± 0.03 | 1.088 ± 0.027 | 1.011 ± 0.025 | 0.942 ± 0.024
x1 = 0.7633 | – | 1.838 ± 0.046 | 1.672 ± 0.042 | 1.528 ± 0.039 | 1.411 ± 0.036

NC(CO)C(=O)[O-].[K+] (stereo not drawn) + O
viscosity [mPa·s], 100 kPa
Conditions | x1 = 0.009 | x1 = 0.019 | x1 = 0.029 | x1 = 0.039 | x1 = 0.049 | x1 = 0.06
303.15 K | 0.9271 ± 0.041 | 1.088 ± 0.041 | 1.308 ± 0.041 | 1.575 ± 0.042 | 1.929 ± 0.043 | 2.448 ± 0.044
308.15 K | 0.8325 ± 0.041 | 0.9764 ± 0.041 | 1.175 ± 0.041 | 1.412 ± 0.041 | 1.719 ± 0.042 | 2.172 ± 0.043
313.15 K | 0.7628 ± 0.04 | 0.8877 ± 0.041 | 1.067 ± 0.041 | 1.279 ± 0.041 | 1.55 ± 0.042 | 1.949 ± 0.043
318.15 K | 0.696 ± 0.04 | 0.8049 ± 0.04 | 0.9686 ± 0.041 | 1.159 ± 0.041 | 1.398 ± 0.041 | 1.752 ± 0.042
323.15 K | 0.6347 ± 0.04 | 0.74 ± 0.04 | 0.8896 ± 0.041 | 1.061 ± 0.041 | 1.275 ± 0.041 | 1.59 ± 0.042

CCCCCCCC[n+]1ccn(C)c1.F[B-](F)(F)F + COC(C)=O
Conditions | viscosity [mPa·s]
298.15 K, 101 kPa, x1 = 0.7036 | 69.93 ± 20

Cc1cccc2ccccc12 + CCCCCCCCCCCC
323.15 K, 100 kPa
Conditions | viscosity
x1 = 0.382 | 1.01 ± 0.042 mPa·s and 1.02 ± 0.042 mPa·s
x1 = 0.699 | 1.22 ± 0.052 mPa·s

CCCCCCCCCO + CCO
viscosity [mPa·s], 101 kPa
Conditions | 298.15 K | 308.15 K | 318.15 K
x2 = 0.05 | 8.632 ± 0.082 | 6.193 ± 0.058 | 4.473 ± 0.043
x2 = 0.1 | 8.168 ± 0.078 | 5.872 ± 0.055 | 4.273 ± 0.04
x2 = 0.15 | 7.706 ± 0.074 | 5.558 ± 0.053 | 4.073 ± 0.038
x2 = 0.2 | 7.247 ± 0.069 | 5.25 ± 0.05 | 3.874 ± 0.036
x2 = 0.25 | 6.791 ± 0.065 | 4.945 ± 0.047 | 3.675 ± 0.034
x2 = 0.3 | 6.34 ± 0.06 | 4.645 ± 0.044 | 3.475 ± 0.032
x2 = 0.35 | 5.893 ± 0.056 | 4.347 ± 0.04 | 3.275 ± 0.03
x2 = 0.4 | 5.453 ± 0.052 | 4.052 ± 0.037 | 3.074 ± 0.028
x2 = 0.45 | 5.019 ± 0.047 | 3.759 ± 0.034 | 2.871 ± 0.026
x2 = 0.5 | 4.593 ± 0.043 | 3.469 ± 0.032 | 2.668 ± 0.024
x2 = 0.55 | 4.176 ± 0.039 | 3.182 ± 0.029 | 2.465 ± 0.022
x2 = 0.6 | 3.769 ± 0.035 | 2.898 ± 0.026 | 2.261 ± 0.02
x2 = 0.65 | 3.375 ± 0.031 | 2.619 ± 0.023 | 2.059 ± 0.018
x2 = 0.7 | 2.993 ± 0.027 | 2.345 ± 0.021 | 1.858 ± 0.016
x2 = 0.75 | 2.627 ± 0.023 | 2.078 ± 0.018 | 1.66 ± 0.015
x2 = 0.8 | – | 1.818 ± 0.016 | 1.466 ± 0.013
x2 = 0.85 | 1.946 ± 0.017 | 1.569 ± 0.014 | 1.277 ± 0.011
x2 = 0.9 | 1.635 ± 0.014 | 1.331 ± 0.012 | 1.094 ± 0.0096
x2 = 0.95 | 1.346 ± 0.012 | 1.108 ± 0.0097 | 0.9197 ± 0.0081
